What was measured:
Eimeria spp.oocysts [1] = experiment: Anticoccidiocidal activity, test A2 (oocyst count in faeces of infected chickens, medicated feed); format: in vivo; conditions: 22 birds in each group
Source text: A total of 88 one day old Habbared X breed chickens were used in the test. They were allocated into 4 groups (22 birds in each group), one group serving as a control group.
(§1) Each composition to be tested was mixed in a sufficient amount of feed for each group and was used for daily feeding from the day zero of the test. Fresh water was supplied ad-libetum.

Eimeria spp.oocysts [2] = experiment: Anticoccidiocidal activity, test A1 (oocyst count in faeces of infected chickens, medicated feed); format: in vivo; conditions: 23 birds in each group
Source text: A total of 92 one day old Habbared X breed chickens were used in the test. They were allocated into 4 groups (23 birds in each group), one group serving as a control group.
as §1

Eimeria spp.oocysts [3] = experiment: Anticoccidiocidal activity, test A3 (single components; oocyst count in faeces, Mc-Master technique); format: in vivo, chickens; conditions: 20 birds in each group; for Mean No. of Eimeria spp.oocysts/gram faeces/group, 5 d.p.i. / Mean No. of Eimeria spp.oocysts/gram faeces/group, 6 d.p.i. / Mean No. of Eimeria spp.oocysts/gram faeces/group, 7 d.p.i. / Mean No. of Eimeria spp.oocysts/gram faeces/group, 8 d.p.i. / Mean No. of Eimeria spp.oocysts/gram faeces/group, 9 d.p.i. / Mean No. of Eimeria spp.oocysts/gram faeces/group, 10 d.p.i. / Mean No. of Eimeria spp.oocysts/gram faeces/group, 12 d.p.i.: during feeding with tested product; for Mean No. of Eimeria spp.oocysts/gram faeces/group, 5 d.p.i.: oral infection with mixture of 5 Eimeria strains, ppm in feed as given per group; for Total number of oocysts: sum of 5-12 d.p.i.
Source text: A total of 100 one day old Habbared X breed chickens were used in the test. They were reared on un-medicated feed as one group during the first 3 days. After that they were allocated into 5 groups (20 each) in 5 separate (1 x 1 meter) pens. With the beginning of the day 8 of bird life, the composition to be tested was mixed into the feed of each group and was used for daily feeding. Fresh water was supplied ad-libetum. The test groups were: [table] The birds were kept on medicated feed for totally […]. […] Eimeria acervulina, E. maxima, E. necatrix, E. tenella and E. brunetti. Fresh fecal droplets were collected daily from the 4th day post experimental infection until day 13 post infection. Mean number of oocyst per gram […] for each group were calculated using the Mc-Master technique according to Soulsby (1984).

[4] = 6 d.p.i., during feeding with tested product, ppm in feed as given per group
[5] = 7 d.p.i., during feeding with tested product
[6] = 8 d.p.i., during feeding with tested product
[7] = 9 d.p.i., during feeding with tested product
[8] = 10 d.p.i., during feeding with tested product
[9] = 11 d.p.i., during feeding with tested product
[10] = 12 d.p.i., during feeding with tested product
[11] = 13 d.p.i., during feeding with tested product

Compound	Mean No. of Eimeria spp.oocysts/gram faeces/group, 5 d.p.i. (Eimeria spp.oocysts [3])	Mean No. of Eimeria spp.oocysts/gram faeces/group, 6 d.p.i. (Eimeria spp.oocysts [3])	Mean No. of Eimeria spp.oocysts/gram faeces/group, 7 d.p.i. (Eimeria spp.oocysts [3])	Mean No. of Eimeria spp.oocysts/gram faeces/group, 8 d.p.i. (Eimeria spp.oocysts [3])	Mean No. of Eimeria spp.oocysts/gram faeces/group, 9 d.p.i. (Eimeria spp.oocysts [3])	Mean No. of Eimeria spp.oocysts/gram faeces/group, 10 d.p.i. (Eimeria spp.oocysts [3])	Mean No. of Eimeria spp.oocysts/gram faeces/group, 12 d.p.i. (Eimeria spp.oocysts [3])	Total number of oocysts (Eimeria spp.oocysts [3])	also measured
Cc1nc(C)c(Cl)c(O)c1Cl [Clopidol]	–	–	–	–	–	–	–	–	Mean No. of Eimeria spp.oocysts/gram faeces/group, 6 d.p.i. (Eimeria spp.oocysts [1]; [4]): 2 oocysts/gram faeces/group (number per thousand oocysts); Mean No. of Eimeria spp.oocysts/gram faeces/group, 7 d.p.i. (Eimeria spp.oocysts [1]; [5]): 900 oocysts/gram faeces/group (number per thousand oocysts); Mean No. of Eimeria spp.oocysts/gram faeces/group, 8 d.p.i. (Eimeria spp.oocysts [1]; [6]): 1300 oocysts/gram faeces/group (number per thousand oocysts); Mean No. of Eimeria spp.oocysts/gram faeces/group, 9 d.p.i. (Eimeria spp.oocysts [1]; [7]): 980 oocysts/gram faeces/group (number per thousand oocysts); Mean No. of Eimeria spp.oocysts/gram faeces/group, 10 d.p.i. (Eimeria spp.oocysts [1]; [8]): 1500 oocysts/gram faeces/group (number per thousand oocysts); Mean No. of Eimeria spp.oocysts/gram faeces/group, 11 d.p.i. (Eimeria spp.oocysts [1]; [9]): 200 oocysts/gram faeces/group (number per thousand oocysts); Mean No. of Eimeria spp.oocysts/gram faeces/group, 12 d.p.i. (Eimeria spp.oocysts [1]; [10]): 200 oocysts/gram faeces/group (number per thousand oocysts); Mean No. of Eimeria spp.oocysts/gram faeces/group, 13 d.p.i. (Eimeria spp.oocysts [1]; [11]): 130 oocysts/gram faeces/group (number per thousand oocysts); Total number of oocysts (Eimeria spp.oocysts [1]; sum of 6-13 d.p.i.): 5212 oocysts/gram faeces/group (number per thousand oocysts); Mean No. of Eimeria spp.oocysts/gram faeces/group, 6 d.p.i. (Eimeria spp.oocysts [2]; [4]): 8 oocysts/gram faeces/group (number per thousand oocysts); Mean No. of Eimeria spp.oocysts/gram faeces/group, 7 d.p.i. (Eimeria spp.oocysts [2]; [5]): 9600 oocysts/gram faeces/group (number per thousand oocysts); Mean No. of Eimeria spp.oocysts/gram faeces/group, 8 d.p.i. (Eimeria spp.oocysts [2]; [6]): 1872 oocysts/gram faeces/group (number per thousand oocysts); Mean No. of Eimeria spp.oocysts/gram faeces/group, 9 d.p.i. (Eimeria spp.oocysts [2]; [7]): 3900 oocysts/gram faeces/group (number per thousand oocysts); Mean No. of Eimeria spp.oocysts/gram faeces/group, 10 d.p.i. (Eimeria spp.oocysts [2]; [8]): 420 oocysts/gram faeces/group (number per thousand oocysts); Mean No. of Eimeria spp.oocysts/gram faeces/group, 11 d.p.i. (Eimeria spp.oocysts [2]; [9]): 14 oocysts/gram faeces/group (number per thousand oocysts); Mean No. of Eimeria spp.oocysts/gram faeces/group, 12 d.p.i. (Eimeria spp.oocysts [2]; [10]): 53 oocysts/gram faeces/group (number per thousand oocysts); Mean No. of Eimeria spp.oocysts/gram faeces/group, 13 d.p.i. (Eimeria spp.oocysts [2]; [11]): 250 oocysts/gram faeces/group (number per thousand oocysts); Total number of oocysts (Eimeria spp.oocysts [2]; sum of 6-13 d.p.i.): 16117 oocysts/gram faeces/group (number per thousand oocysts)
NC(N)=Nc1nc(CSCCC(N)=NS(N)(=O)=O)cs1 [Famo-tidine, Famotidine]	0.0 oocysts/gram faeces/group (number per thousand oocysts)	0.0 oocysts/gram faeces/group (number per thousand oocysts)	160 oocysts/gram faeces/group (number per thousand oocysts)	280 oocysts/gram faeces/group (number per thousand oocysts)	460 oocysts/gram faeces/group (number per thousand oocysts)	10 oocysts/gram faeces/group (number per thousand oocysts)	0 oocysts/gram faeces/group (number per thousand oocysts)	910 oocysts/gram faeces/group (number per thousand oocysts)	–
CN[C@@H]1[C@H](O[C@H]2[C@H](O[C@H]3[C@H](O)[C@@H](O)[C@H](NC(=N)N)[C@@H](O)[C@@H]3NC(=N)N)O[C@@H](C)[C@]2(O)CO)O[C@@H](CO)[C@H](O)[C@H]1O [dihydro-streptomycin, dihydrostreptomycin]	0.0 oocysts/gram faeces/group (number per thousand oocysts)	38 oocysts/gram faeces/group (number per thousand oocysts)	710 oocysts/gram faeces/group (number per thousand oocysts)	138 oocysts/gram faeces/group (number per thousand oocysts)	138 oocysts/gram faeces/group (number per thousand oocysts)	0 oocysts/gram faeces/group (number per thousand oocysts)	–	956 oocysts/gram faeces/group (number per thousand oocysts)	–
Nc1nc2ncc(CNc3ccc(C(=O)N[C@@H](CCC(=O)O)C(=O)O)cc3)nc2c(=O)[nH]1 [folic acid]	0 oocysts/gram faeces/group (number per thousand oocysts)	22 oocysts/gram faeces/group (number per thousand oocysts)	251 oocysts/gram faeces/group (number per thousand oocysts)	310 oocysts/gram faeces/group (number per thousand oocysts)	220 oocysts/gram faeces/group (number per thousand oocysts)	3 oocysts/gram faeces/group (number per thousand oocysts)	0 oocysts/gram faeces/group (number per thousand oocysts)	806 oocysts/gram faeces/group (number per thousand oocysts)	–
